Results taken from patent US9992981B2, “Optogenetic control of reward-related behaviors” (The Board of Trustees of the Leland Stanford Junior …, priority 2010, dated 2018).
Read-outs that look alike come from different tables or passages of the source.

Legend:
[1] = test system: MSNs; experiment: IPSCs in MSNs during photostimulation of ChR2-expressing ChAT neurons in acute NAc slices; type: cell-based, mice
Description: Coronal cerebral brain slices were prepared from adult mice with virus previously injected (>2 weeks prior to slicing), using standard techniques in strict accordance with a protocol approved by the Animal Care and Use Committee at Stanford University. Coronal slices 250 μm thick were cut with a vibratome using a sapphire blade in ice cold N-methyl-D-glucamine (NMDG)-based cutting solution containing 135 mM NMDG, 1 mM KCl, 1.2 mM KH2PO4, 20 mM choline bicarbonate, 10 mM glucose, 1.5 mM MgCl2 and 0.5 mM CaCl2. Slices were maintained thereafter in artificial cerebral spinal fluid (ACSF) containing 119 mM NaCl, 2.5 mM KCl, 2.5 mM CaCl2, 1.3 mM MgCl2, 1 mM NaH2PO4, 26.2 mM NaHCO3 and 11 mM glucose. Slices were maintained in ACSF at 37° C. for 30 minutes, and thereafter at room temperature. ACSF was bubbled constantly with 95% O2/5% CO2 and heated to 34° C. for all experiments. Neurons were visualized on an upright microscope (Leica DM-LFSA) equipped with both DIC optics and a filter set for visualizing eYFP using a ×40 water-immersion objective and a charge-coupled device (CCD) camera. Whole-cell recordings were made from neurons using the electrode solution containing 120 mM potassium gluconate, 20 mM HEPES, 10 mM EGTA, 1 mM MgCl2, 2 mM Na-ATP, and 0.2 mM Na-GTP (pH 7.3, 290 mOsm/L); in experiments recording IPSCs, KCl was used to replace potassium gluconate. Pipette resistances were 3-5 MΩ, and recordings were made without series resistance compensation. Membrane potentials have been corrected for the error resulting from the liquid junction potentials. The holding potential (VM) for voltage-clamp experiments was −70 mV. […] […] Photocurrents were evoked using an optical switch with a 300W xenon lamp and either a 470±20 nm or a 580±20 nm bandpass filters; light power at the specimen was 11.52 mW mm^−2 (470 nm) or 10.64 mW mm^−2 (580 nm). Currents filtered at 2 kHz, digitized at 50 kHz, and recorded to disk using pClamp10 software (Axon Instruments).

[2] = test system: ChAT interneurons of the NAc; experiment: Conditioned place preference (CPP); type: in vivo, mice
[3] = test system: ChAT neurons; experiment: Cocaine response of ChAT cells in slice (spontaneous firing); type: cell-based, mice; settings: 5 μM cocaine bath, at 10 min; baseline 0.60±0.41 Hz; n=7
Description: Coronal cerebral brain slices were prepared from adult mice with virus previously injected (>2 weeks prior to slicing), using standard techniques in strict accordance with a protocol approved by the Animal Care and Use Committee at Stanford University. Coronal slices 250 μm thick were cut with a vibratome using a sapphire blade in ice cold N-methyl-D-glucamine (NMDG)-based cutting solution containing 135 mM NMDG, 1 mM KCl, 1.2 mM KH2PO4, 20 mM choline bicarbonate, 10 mM glucose, 1.5 mM MgCl2 and 0.5 mM CaCl2. Slices were maintained thereafter in artificial cerebral spinal fluid (ACSF) containing 119 mM NaCl, 2.5 mM KCl, 2.5 mM CaCl2, 1.3 mM MgCl2, 1 mM NaH2PO4, 26.2 mM NaHCO3 and 11 mM glucose. Slices were maintained in ACSF at 37° C. for 30 minutes, and thereafter at room temperature. ACSF was bubbled constantly with 95% O2/5% CO2 and heated to 34° C. for all experiments. Neurons were visualized on an upright microscope (Leica DM-LFSA) equipped with both DIC optics and a filter set for visualizing eYFP using a ×40 water-immersion objective and a charge-coupled device (CCD) camera. […] Currents filtered at 2 kHz, digitized at 50 kHz, and recorded to disk using pClamp10 software (Axon Instruments).

[4] = after 15 minutes, cited from earlier work
[5] = Wavelength sensitivity of identified opsins (Tables 1 and 2); settings: Table 1, opsins for inhibition

## Br.COc1ccc(-c2ccc(=N)n(CCCC(=O)O)n2)cc1 [SR-95531]
[1]; SR-95531 (5 mM), NBQX and RS-CPP present
  effect on light-evoked synaptic currents in MSN: blocked

## COC(=O)[C@H]1[C@@H](OC(=O)c2ccccc2)C[C@@H]2CC[C@H]1N2C [cocaine, benzoylmethylecgonine]
[2]; ChAT::Cre+ (eNphR3.0 inhibition paired with cocaine), 10 mg/kg
  Conditioned side (min), total time on cocaine-paired side on testing day: 10.3 min
[2]; ChAT::Cre+ (eNphR3.0 inhibition paired with cocaine), 20 mg/kg
  Conditioned side (min), total time on cocaine-paired side on testing day: 10.7 min
[2]; ChAT::Cre+ (eNphR3.0 inhibition paired with cocaine), 40 mg/kg
  Conditioned side (min), total time on cocaine-paired side on testing day: 10.5 min
[2]; ChAT::Cre− control littermates, 10 mg/kg
  Conditioned side (min), total time on cocaine-paired side on testing day: 8.5 min
[2]; ChAT::Cre− control littermates, 20 mg/kg
  Conditioned side (min), total time on cocaine-paired side on testing day: 14.2 min
[2]; ChAT::Cre− control littermates, 40 mg/kg
  Conditioned side (min), total time on cocaine-paired side on testing day: 9.2 min
[3]
  firing rate of ChAT neurons after cocaine: 1.74±0.56 Hz
[4]; i.p. 10 mg/kg
  cocaine in the brain: 4.7 µM
[4]; i.p. 20 mg/kg
  cocaine in the brain: 9.4 µM

## CNC1(C)C2CCC(C2)C1(C)C (centres unmarked) [mecamylamine]
[1]; 10 μM mecamylamine, light alone raised 3.4+/−1.3 Hz to 10.1+/−1.2 Hz, 470 nm, 10 Hz
  IPSC frequency with light and mecamylamine: 5.1+/−1.8 Hz
[1]; n=5, P<0.05
  effect on light-evoked increase of IPSC frequency: attenuated

B1: NpHR: halorhodopsin from Natronomonas pharaonis (protein, UniProt P15647 1-291, looked up)
Halorhodopsin: MTETLPPVTESAVALQAEVTQRELFEFVLNDPLLASSLYINIALAGLSILLFVFMTRGLDDPRAKLIAVSTILVPVVSIASYTGLASGLTISVLEMPAGHFAEGSSVMLGGEEVDGVVTMWGRYLTWALSTPMILLALGLLAGSNATKLFTAITFDIAMCVTGLAAALTTSSHLMRWFWYAISCACFLVVLYILLVEWAQDAKAAGTADMFNTLKLLTVVMWLGYPIVWALGVEGIAVLPVGVTSWGYSFLDIVAKYIFAFLLLNYLTSNESVVSGSILDVPSASGTPADD
[5]
  Wavelength Sensitivity (max): 589 nm max

B2: BR: opsin for inhibition, biological origin Halobacterium helobium (protein, UniProt P02945 14-262, looked up)
Bacteriorhodopsin: QAQITGRPEWIWLALGTALMGLGTLYFLVKGMGVSDPDAKKFYAITTLVPAIAFTMYLSMLLGYGLTMVPFGGEQNPIYWARYADWLFTTPLLLLDLALLVDADQGTILALVGADGIMIGTGLVGALTKVYSYRFVWWAISTAAMLYILYVLFFGFTSKAESMRPEVASTFKVLRNVTVVLWSAYPVVWLIGSEGAGIVPLNIETLLFMVLDVSAKVGFGLILLRSRAIFGEAEAPEPSAGDGAAATSD
[5]
  Wavelength Sensitivity (max): 570 nm max
